{"source": "patent US20230066204A1", "about": "(OYE Therapeutics, Inc, priority 2019, published 2023)", "origin": "cited, not measured here", "test_system": "rat", "details": "administered intravenously"}
{"smiles": "Cn1c(=O)c2c(ncn2C)n(C)c1=O", "note": "[Caffeine]", "values": [{"measurement": "accelerating emergence from anesthesia", "result": "effective in accelerating emergence from anesthesia"}]}
